This test addresses human NAMPT enzyme (His-hNAMPT) (Homo sapiens (Human), UniProt P43490). Briefly: NAMPT enzymatic inhibition assay (fluorescence, NADH product). The class given is biochemical. The method, then: The compounds were then diluted 20 fold in an intermediate dilution to 5% DMSO and water. Finally 10 μL of each compound was added to the assay plate, in duplicate, with highest concentration at 30 μM and the lowest at 0.001 μM in a final volume of 50 μL and 1% DMSO concentration. Each assay also tested, in parallel, two reference compounds, FK866 and GMX1778, with highest concentration at 10 μM and lowest at 0.0003 μM. 200 ng of human NAMPT enzyme (His-hNAMPT obtained from E. coli expression system) diluted in […] (tris-buffered saline-Polysorbate 20) 1× was added to each well in a volume of 10 μL and the compounds were incubated with the enzyme at room temperature for 20 minutes. After the incubation, 30 μL of master mixture were added to each well. The master mixture contained: 50 mM Tris-HCl, pH 8.0, 12.5 mM MgCl2, 20 μM nicotinamide, 40 μM phosphoribosyl pyrophosphate (PRPP), 20 μM adenosine triphosphate (ATP), 30 μg/mL of alcohol dehydrogenase, 10 μg/mL of NMNAT, 1.5% alcohol, 1 mM dithiothreitol (DTT), 0.02% bovine serum albumin (BSA), 0.01% Tween 20. The reaction was performed at 30° C. for 60 minutes. Fluorescence intensity was measured at an excitation of 340 nm and an emission of 460 nm using a Tecan Infinite M1000 microplate reader. The fluorescence values indicated increase of NADH product.
Enzyme activity assay was performed in duplicate at each concentration. The fluorescence data was analyzed and compared. In the absence of the compound, the intensity (Ce) in each data set was defined as 100% activity. In the absence of enzyme, the intensity (C0) in each data set was defined as 0% activity. The percent activity in the presence of each compound was calculated according to the following equation: % activity=(C−C0)/(Ce−C0), where C is the fluorescence in the presence of the compound.
The % activity vs. compound concentrations were then plotted using non-linear regression analysis of Sigmoidal dose-response curve generated with the equation Y=B+(T−B)/1+10^((Log EC50-X)×Hill Slope), where Y is percent activity, B is minimum percent activity, T is maximum percent activity, X is logarithm of compound and Hill Slope=slope factor or Hill coefficient.

The mark [1] stands for this setting: [BPS], read-out: NAMPT IC50 (μM) [BPS].
Where [2] appears, read: [HDB], read-out: NAMPT IC50 (μM) [HDB].

The structures appear in SMILES notation. Like-named read-outs stand apart in the source and are kept apart here. Bounds are passed on as bounds.

A word on the IC50: it is the concentration that gives 50% inhibition.

human NAMPT enzyme (His-hNAMPT), sequence (P43490 whole entry): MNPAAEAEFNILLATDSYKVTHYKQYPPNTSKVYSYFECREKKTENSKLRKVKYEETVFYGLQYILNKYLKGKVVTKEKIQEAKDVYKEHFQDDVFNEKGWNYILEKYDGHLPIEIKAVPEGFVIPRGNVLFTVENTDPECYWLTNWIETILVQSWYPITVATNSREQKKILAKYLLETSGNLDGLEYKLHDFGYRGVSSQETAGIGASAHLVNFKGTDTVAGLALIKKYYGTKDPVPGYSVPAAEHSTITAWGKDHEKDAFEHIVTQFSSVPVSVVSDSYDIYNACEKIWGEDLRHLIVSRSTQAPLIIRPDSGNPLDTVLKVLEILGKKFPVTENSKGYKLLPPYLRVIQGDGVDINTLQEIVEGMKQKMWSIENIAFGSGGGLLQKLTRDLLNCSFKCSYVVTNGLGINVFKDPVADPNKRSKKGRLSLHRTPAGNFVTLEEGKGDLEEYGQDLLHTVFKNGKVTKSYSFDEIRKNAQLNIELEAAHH

Consider `CC(C)(C)OC(=O)N1C[C@@H]2[C@@H](CCNC(=O)c3ccc4nccn4c3)[C@@H]2C1` [Example 7, (1R,5S,6s)-tert-butyl 6-(2-(imidazo[1,2-a]pyridine-6-carboxamido)ethyl)-3-azabicyclo[3.1.0]hexane-3-carboxylate], for which the IC50 under setting [1] was in the range of 0.01 to 0.49 µM.
For the molecule `CC(C)(C)OC(=O)N1C[C@@H]2[C@@H](CCNC(=O)C(C)(C)C)[C@@H]2C1` [Example 8, (1R,5S,6s)-tert-butyl 6-(2-pivalamidoethyl)-3-azabicyclo[3.1.0]hexane-3-carboxylate], under setting [1], the IC50 is over 30 µM.
Turning to `Cc1noc2ncc(/C=C/C(=O)NCC[C@@H]3[C@H]4CN(C(=O)OC(C)(C)C)C[C@@H]34)cc12` [Example 9, tert-butyl (1R,5S,6s)-6-(2-((E)-3-(3-methylisoxazolo[5,4-b]pyridin-5-yl)acrylamido)ethyl)-3-azabicyclo[3.1.0]hexane-3-carboxylate], the half-inhibitory concentration (IC50) under setting [2] was 0.01 to 0.49 µM.
As for `CC(C)(C)OC(=O)N1C[C@@H]2[C@@H](CCNC(=O)[C@H]3C[C@@H]3c3cccnc3)[C@@H]2C1` [Example 10, (1R,5S,6s)-tert-butyl 6-(2-((1R,2R)-2-(pyridin-3-yl)cyclopropanecarbox-amido)ethyl)-3-azabicyclo[3.1.0]hexane-3-carboxylate], the concentration for half-maximal inhibition (IC50) under setting [1] lay in the range of 0.01 to 0.49 µM.
With `CC(C)(C)OC(=O)N1C[C@@H]2[C@@H](CCNC(=O)c3nc4ccncc4s3)[C@@H]2C1` [Example 11, (1R,5S,6s)-tert-butyl 6-(2-(thiazolo[5,4-c]pyridine-2-carboxamido)ethyl)-3-azabicyclo[3.1.0]hexane-3-carboxylate], the IC50 under setting [1] lay in the range of 0.5 to 0.99 µM.
Consider `CC(C)(C)OC(=O)N1C[C@@H]2[C@@H](CCNC(=O)c3cc(-c4cccnc4)on3)[C@@H]2C1` [Example 12, (1R,5S,6s)-tert-butyl 6-(2-(5-(pyridin-3-yl)isoxazole-3-carboxamido)ethyl)-3-azabicyclo[3.1.0]hexane-3-carboxylate], for which, under setting [1], the concentration for half-maximal inhibition (IC50) is under 0.01 µM.
On to `CC(C)(C)OC(=O)N1C[C@@H]2[C@@H](CCNC(=O)c3cc4cc(N)ncc4s3)[C@@H]2C1` [Example 13, (1R,5S,6s)-tert-butyl 6-(2-(5-aminothieno[2,3-c]pyridine-2-carboxamido)ethyl)-3-azabicyclo[3.1.0]hexane-3-carboxylate], for which, under setting [2], the IC50 was in the range of 0.01 to 0.49 µM.
Turning to `CC(=O)NCC[C@@H]1[C@H]2CN(C(=O)OC(C)(C)C)C[C@@H]12` [Example 14, (1R,5S,6s)-tert-butyl 6-(2-azetamidoethyl)-3-azabicyclo[3.1.0]hexane-3-carboxylate], the IC50 under setting [1] was over 30 µM.
Regarding `CC(C)(C)OC(=O)N1C[C@@H]2[C@@H](CCNC(=O)N3Cc4ccccc4C3)[C@@H]2C1` [Example 15, (1R,5S,6s)-tert-butyl 6-(2-(isoindoline-2-carboxamido)ethyl)-3-azabicyclo[3.1.0]hexane-3-carboxylate], the 50% inhibitory concentration (IC50) under setting [1] lay in the range of 0.01 to 0.49 µM.
With `CC(C)(C)OC(=O)N1C[C@@H]2[C@@H](CCNC(=O)N3CCc4sccc4C3)[C@@H]2C1` [Example 16, (1R,5S,6s)-tert-butyl 6-(2-(4,5,6,7-tetrahydrothioeno[3,2-c]pyridine-5-carboxamido)ethyl)-3-azabicyclo[3.1.0]hexane-3-carboxylate], under setting [1], the 50% inhibitory concentration (IC50) is 0.01 to 0.49 µM.
`CC(C)(C)OC(=O)N1C[C@@H]2[C@@H](CCNC(=O)N3CC(c4cccnc4)C3)[C@@H]2C1` [Example 17, (1R,5S,6s)-tert-butyl 6-(2-(3-(pyridin-3-yl)azetidine-1-carboxamido)ethyl)-3-azabicyclo[3.1.0]hexane-3-carboxylate]: the IC50 by setting is: under setting [1], 0.01 to 0.49 µM; under setting [2], under 0.01 µM.
For `CC(C)(C)OC(=O)N1C[C@@H]2[C@@H](CCNC(=NC#N)Nc3ccncc3)[C@@H]2C1` [Example 18, (1R,5S,6s)-tert-butyl 6-(2-((E)-2-cyano-3-(pyridin-4-yl)guanidino)ethyl)-3-azabicyclo[3.1.0]hexane-3-carboxylate], the IC50 under setting [1] fell in the range of 0.01 to 0.49 µM.
As to `CC(C)(C)OC(=O)N1C[C@@H]2[C@@H](CCNC(=O)NCc3cccnc3)[C@@H]2C1` [Example 19, (1R,5S,6s)-tert-butyl 6-(2-(3-((pyridin-3-yl)methyl)ureido)ethyl)-3-azabicyclo[3.1.0]hexane-3-carboxylate], the IC50 under setting [1] is 0.01 to 0.49 µM.
The same measure, in the same setting: for `CC(C)(C)OC(=O)N1C[C@@H]2[C@@H](CCNC(=O)N3Cc4ccncc4C3)[C@@H]2C1` [Example 20, (1R,5S,6s)-tert-butyl 6-(2-(2,3-dihydro-1H-pyrrolo[3,4-c]pyridine-2-carboxamido)ethyl)-3-azabicyclo[3.1.0]hexane-3-carboxylate] the value was 0.01 to 0.49 µM; for `CC1(OC(=O)N2C[C@@H]3[C@@H](CCNC(=O)/C=C/c4cccnc4)[C@@H]3C2)COC1` [Example 21, (1R,5S,6s)-3-methyloxetan-3-yl 6-(2-((E)-3-(pyridin-3-yl)acrylamido)ethyl)-3-azabicyclo[3.1.0]hexane-3-carboxylate], 0.01 to 0.49 µM.
Still for that read-out and setting: for `O=C(/C=C/c1cccnc1)NCC[C@@H]1[C@H]2CN(C(=O)c3ccccc3)C[C@@H]12` [Example 22, (E)-N-(2-((1R,5S,6s)-3-benzoyl-3-azabicyclo[3.1.0]hexan-6-yl)ethyl)-3-(pyridin-3-yl)acrylamide] the value was 0.01 to 0.49 µM.
With `O=C(/C=C/c1cccnc1)NCC[C@@H]1[C@H]2CN(S(=O)(=O)c3ccccc3)C[C@@H]12` [Example 23, (E)-N-(2-((1R,5S,6s)-3-(phenylsulfonyl)-3-azabicyclo[3.1.0]hexan-6-yl)ethyl)-3-(pyridin-3-yl)acrylamide], the IC50 by setting is: under setting [1], 0.01 to 0.49 µM; under setting [2], 0.01 to 0.49 µM.
With `CC1(OC(=O)N2C[C@@H]3[C@@H](CCNC(=O)/C=C/c4ccc(N)nc4)[C@@H]3C2)COC1` [Example 24, (1R,5S,6s)-3-methyloxetan-3-yl 6-(2-((E)-3-(6-aminopyridin-3-yl)acrylamido)ethyl)-3-azabicyclo[3.1.0]hexane-3-carboxylate], under setting [1], the IC50 lay in the range of 0.01 to 0.49 µM.
Take `Nc1ccc(/C=C/C(=O)NCC[C@@H]2[C@H]3CN(C(=O)c4ccccc4)C[C@@H]23)cn1` [Example 25, (E)-3-(6-aminopyridin-3-yl)-N-(2-((1R,5S,6s)-3-benzoyl-3-azabicyclo[3.1.0]hexan-6-yl)ethyl)acrylamide]: the IC50 was in the range of 0.01 to 0.49 µM under setting [1] and 0.01 to 0.49 µM under setting [2].
Consider `CC1(OC(=O)N2C[C@@H]3[C@@H](CCNC(=O)c4cc5ccncc5s4)[C@@H]3C2)COC1` [Example 26, (1R,5S,6s)-3-methyloxetan-3-yl 6-(2-(thieno[2,3-c]pyridine-2-carboxamido)ethyl)-3-azabicyclo[3.1.0]hexane-3-carboxylate], for which the IC50 under setting [1] lay within 0.01 to 0.49 µM.
For `CC1(OC(=O)N2C[C@@H]3[C@@H](CCNC(=O)c4cc5ccncc5o4)[C@@H]3C2)COC1` [Example 27, (1R,5S,6s)-3-methyloxetan-3-yl 6-(2-(furo[2,3-c]pyridine-2-carboxamido)ethyl)-3-azabicyclo[3.1.0]hexane-3-carboxylate], the IC50 under setting [1] lay in the range of 0.01 to 0.49 µM.
`Nc1ccc(/C=C/C(=O)NCC[C@@H]2[C@H]3CN(C(=O)NCc4ccccc4)C[C@@H]23)cn1` [Example 28, (1R,5S,6s)-6-(2-((E)-3-(6-aminopyridin-3-yl)acrylamido)ethyl)-N-benzyl-3-azabicyclo[3.1.0]hexane-3-carboxamide]: the IC50 under setting [1] was in the range of 0.01 to 0.49 µM.
Same read-out and setting: under `Nc1ccc(/C=C/C(=O)NCC[C@@H]2[C@H]3CN(C(=O)N4CCOCC4)C[C@@H]23)cn1` [Example 29, (E)-3-(6-aminopyridin-3-yl)-N-(2-((1R,5S,6s)-3-(morpholine-4-carbonyl)-3-azabicyclo[3.1.0]hexan-6-yl)ethyl)acrylamide] stands 0.01 to 0.49 µM.
On to `O=C(NCC[C@@H]1[C@H]2CN(C(=O)c3ccccc3)C[C@@H]12)c1cc2ccncc2o1` [Example 30, N-(2-((1R,5S,6s)-3-benzoyl-3-azabicyclo[3.1.0]hexan-6-yl)ethyl)furo[2,3-c]pyridine-2-carboxamide], for which the concentration for half-maximal inhibition (IC50) reads like this: under setting [1], 0.01 to 0.49 µM; under setting [2], 0.01 to 0.49 µM.
Regarding `Nc1ccc(/C=C/C(=O)NCC[C@@H]2[C@H]3CN(C(=O)Nc4ccccc4)C[C@@H]23)cn1` [Example 31, (1R,5S,6s)-6-(2-((E)-3-(6-aminopyridin-3-yl)acrylamido)ethyl)-N-phenyl-3-azabicyclo[3.1.0]hexane-3-carboxamide], the half-maximal inhibitory concentration (IC50) under setting [1] fell in the range of 0.01 to 0.49 µM.
As to `Nc1ccc(/C=C/C(=O)NCC[C@@H]2[C@H]3CN(C(=O)NC4CCOCC4)C[C@@H]23)cn1` [Example 32, (1R,5S,6s)-6-(2-((E)-3-(6-aminopyridin-3-yl)acrylamido)ethyl)-N-(tetrahydro-2H-pyran-4-yl)-3-azabicyclo[3.1.0]hexane-3-carboxamide], under setting [1], the IC50 is 0.01 to 0.49 µM.

(Values after patent publication US12421210B2, “Fused bicyclic heterocycles as therapeutic agents” (NEW YORK UNIVERSITY, priority 2018, dated 2025).)
